Calls of active or inactive are those of the source.
What was measured:
[1] = M. tuberculosis H37Rv growth inhibitors, H37Rv strain (AID 1626); assay type: functional
[2] = biological target: T1, Polyadenylate-binding protein 1 (Homo sapiens, UniProt P11940); test: MLLE domain peptide-binding blockers, IC50 – biochemical, fluorescence polarization, FITC-PAM2 peptide, dose response (AID 602259); assay type: functional; conditions: read-out: IC50_Mean
[3] = biological target: T2, Mannose-6-phosphate isomerase (Homo sapiens, UniProt P34949); test: MPI inhibition at elevated mannose 6-phosphate – biochemical, fluorescence intensity, high mannose 6-phosphate, primary screen (AID 1220)
T2 sequence (P34949 whole entry): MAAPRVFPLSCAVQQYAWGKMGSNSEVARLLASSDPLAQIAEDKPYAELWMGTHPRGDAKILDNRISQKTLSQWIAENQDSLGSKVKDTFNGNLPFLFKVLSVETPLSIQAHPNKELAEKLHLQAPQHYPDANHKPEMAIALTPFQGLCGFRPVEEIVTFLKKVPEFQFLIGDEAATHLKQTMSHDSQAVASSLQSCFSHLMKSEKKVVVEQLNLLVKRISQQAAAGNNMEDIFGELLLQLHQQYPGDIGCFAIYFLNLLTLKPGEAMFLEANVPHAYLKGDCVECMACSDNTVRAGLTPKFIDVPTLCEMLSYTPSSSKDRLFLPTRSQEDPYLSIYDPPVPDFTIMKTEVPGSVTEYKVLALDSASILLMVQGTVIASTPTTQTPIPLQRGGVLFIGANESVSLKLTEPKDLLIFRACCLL

[4] = biological target: T1, Polyadenylate-binding protein 1; test: MLLE binding blockers, Cy5 peptide tracer – biochemical, fluorescence polarization, Cy5-PAM2 peptide, secondary, miRNA deadenylation inhibitor project, dose response (AID 602260); assay type: functional; conditions: read-out: IC50_Mean
BJ [5] = test: cells; assay type: functional, cell-based; conditions: Homo sapiens
[6] = viability loss in HEK293 cells – cell-based, plate reader, cherry-picked samples, cytotoxicity control, dose response (AID 743446); assay type: functional
[7] = alpha-synuclein stem-loop luciferase translation blockers – H4 neuroglioma cells, luminescence, confirmation (AID 1988); assay type: functional, cell-based
[8] = luciferase reporter signal suppression in cells – H4 neuroglioma cells, luminescence, dose response (AID 1990); assay type: functional, cell-based
[9] = Luminescence Cell-Based Dose Response HTS to Identify Inhibitors of 5'UTR Stem-Loop Driven Prion Protein mRNA Translation in H4 Neuroglioblastoma Cells. [Related pubchem assays: 1827 (Project Summary), 1813 (Primary HTS)]; assay type: functional
[10] = DRD fibroblast viability loss – cell-based, non-viral oncogenic, luminescence, dose response (AID 1934); assay type: functional; conditions: Homo sapiens
[11] = toxicity toward HepG2 liver cells – cell-based, plate reader, cherry-pick, antagonist series, cytotoxicity control, dose response (AID 743416); assay type: functional
[12] = A549 cell cytotoxicity, dose response, cytotoxicity control, plate reader, cherry-pick, antagonist series (AID 743412); assay type: functional, cell-based
[13] = blockade of melanocortin 4 receptor signaling – cell-based, plate reader, cherry pick, counter-screen for LGR2 antagonist project, dose response (AID 743444); assay type: functional;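 further: transfected HEK 293 cells stimulated with alpha-MSH peptide; potency of inhibitors of the alpha-MSH evoked signal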
BJ [14] = test: BJ-TERT fibroblast viability loss – cell-based, RAS-independent, luminescence, dose response (AID 1933); assay type: functional; conditions: Homo sapiens
BJ [15] = test: BJ-TERT-LT-ST fibroblast viability loss – cell-based, RAS-independent, luminescence, dose response (AID 1935); assay type: functional; conditions: Homo sapiens;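 further: BJ fibroblasts immortalized with TERT plus LT and ST oncogenes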
[16] = blockers of bursicon-stimulated LGR2 cAMP reporter – cell-based, HEK293, CRE-luciferase reporter, cherry pick, set 2, dose response (AID 743343); assay type: functional;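 further: transfected cells were stimulated with diluted bursicon conditioned medium after compound addition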
[17] = biological target: T3, Adenosylmethionine-8-amino-7-oxononanoate aminotransferase (Mycobacterium tuberculosis, UniProt P9WQ81); test: Mycobacterium tuberculosis BioA enzyme inhibitor Measured in Biochemical System Using Plate Reader - 2163-02_Inhibitor_Dose_CherryPick_Activity.; assay type: functional, Mycobacterium tuberculosis UT205
T3 sequence (P9WQ81 whole entry): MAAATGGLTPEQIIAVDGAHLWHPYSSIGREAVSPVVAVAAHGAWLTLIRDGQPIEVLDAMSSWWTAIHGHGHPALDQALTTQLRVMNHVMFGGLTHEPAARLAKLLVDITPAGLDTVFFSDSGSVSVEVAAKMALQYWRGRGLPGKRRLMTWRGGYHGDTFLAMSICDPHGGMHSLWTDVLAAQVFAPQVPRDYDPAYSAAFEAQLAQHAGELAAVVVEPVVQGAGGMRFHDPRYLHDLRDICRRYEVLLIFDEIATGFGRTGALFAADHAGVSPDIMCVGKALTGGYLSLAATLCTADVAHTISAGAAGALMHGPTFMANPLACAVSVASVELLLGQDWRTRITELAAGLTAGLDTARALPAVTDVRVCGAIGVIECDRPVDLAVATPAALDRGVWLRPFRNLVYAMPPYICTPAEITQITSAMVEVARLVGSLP

[18] = Luminescence-based cell-based high throughput dose response assay to identify activators of the DAF-12 from the parasite S. stercoralis (ssDAF-12).; assay type: functional
[19] = biological target: T4, Oxysterols receptor LXR-beta (Homo sapiens, UniProt P55055); test: LXR agonists, Gal4 luciferase reporter, dose response, counter-screen for ssDAF-12 agonist project, cell-based, luminescence, HEK293, S. stercoralis campaign (AID 720737); assay type: functional; conditions: read-out: IC50 (the source's name)
T4 sequence (P55055 whole entry): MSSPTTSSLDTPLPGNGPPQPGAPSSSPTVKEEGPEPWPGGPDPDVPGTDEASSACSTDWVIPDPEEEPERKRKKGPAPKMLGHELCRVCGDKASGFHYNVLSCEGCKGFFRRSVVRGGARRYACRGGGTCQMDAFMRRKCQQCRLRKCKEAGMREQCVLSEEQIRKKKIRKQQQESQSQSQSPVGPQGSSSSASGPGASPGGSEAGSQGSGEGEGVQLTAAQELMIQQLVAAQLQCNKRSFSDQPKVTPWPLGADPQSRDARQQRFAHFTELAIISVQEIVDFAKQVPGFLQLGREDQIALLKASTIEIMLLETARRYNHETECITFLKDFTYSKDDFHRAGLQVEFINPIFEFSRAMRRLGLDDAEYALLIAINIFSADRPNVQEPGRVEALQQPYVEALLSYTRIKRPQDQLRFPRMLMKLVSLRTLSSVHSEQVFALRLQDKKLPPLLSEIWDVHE

[20] = biological target: Disintegrin and metalloproteinase domain-containing protein 17 (Homo sapiens, UniProt P78536); test: inhibition of ADAM17 substrate cleavage – biochemical, quenched FRET substrate, counter-screen for ADAM10 exosite inhibitor project, dose response (AID 743253)
Disintegrin and metalloproteinase domain-containing protein 17, sequence (P78536 whole entry, the tested form may be a part): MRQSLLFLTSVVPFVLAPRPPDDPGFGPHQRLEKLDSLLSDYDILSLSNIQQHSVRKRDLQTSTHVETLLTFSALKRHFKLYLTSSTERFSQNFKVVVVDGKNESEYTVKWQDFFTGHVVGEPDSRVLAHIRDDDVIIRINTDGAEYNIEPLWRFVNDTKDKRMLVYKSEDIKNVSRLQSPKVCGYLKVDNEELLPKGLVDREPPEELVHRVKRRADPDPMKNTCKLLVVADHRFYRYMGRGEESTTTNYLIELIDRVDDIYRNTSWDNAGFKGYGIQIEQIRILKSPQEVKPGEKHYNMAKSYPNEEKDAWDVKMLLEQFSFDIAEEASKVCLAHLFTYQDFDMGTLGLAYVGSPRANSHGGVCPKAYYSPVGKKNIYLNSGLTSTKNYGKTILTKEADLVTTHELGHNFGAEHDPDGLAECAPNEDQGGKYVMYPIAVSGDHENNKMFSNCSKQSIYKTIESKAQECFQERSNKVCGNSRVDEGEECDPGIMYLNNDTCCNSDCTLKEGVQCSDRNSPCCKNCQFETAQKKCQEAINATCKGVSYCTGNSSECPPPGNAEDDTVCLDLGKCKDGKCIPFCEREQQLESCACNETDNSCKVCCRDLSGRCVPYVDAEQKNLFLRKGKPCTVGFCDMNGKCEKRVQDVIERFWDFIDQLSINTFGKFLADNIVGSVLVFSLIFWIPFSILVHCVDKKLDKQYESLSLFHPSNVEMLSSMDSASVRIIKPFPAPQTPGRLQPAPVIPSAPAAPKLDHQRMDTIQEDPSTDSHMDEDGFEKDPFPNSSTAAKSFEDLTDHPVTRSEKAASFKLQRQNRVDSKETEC

H9c2 = test: cells; assay type: functional, cell-based; conditions: Rattus norvegicus, H9c2, Myocardium
Leucine aminopeptidase = biological target: T5, Leucine aminopeptidase (Plasmodium falciparum 3D7, UniProt Q8IL11); test: P. falciparum M17LAP inhibitors, primary screen, biochemical, fluorogenic H-Leu-NHMec substrate, 1536-well (AID 1619); assay type: functional
T5 sequence (Q8IL11 whole entry): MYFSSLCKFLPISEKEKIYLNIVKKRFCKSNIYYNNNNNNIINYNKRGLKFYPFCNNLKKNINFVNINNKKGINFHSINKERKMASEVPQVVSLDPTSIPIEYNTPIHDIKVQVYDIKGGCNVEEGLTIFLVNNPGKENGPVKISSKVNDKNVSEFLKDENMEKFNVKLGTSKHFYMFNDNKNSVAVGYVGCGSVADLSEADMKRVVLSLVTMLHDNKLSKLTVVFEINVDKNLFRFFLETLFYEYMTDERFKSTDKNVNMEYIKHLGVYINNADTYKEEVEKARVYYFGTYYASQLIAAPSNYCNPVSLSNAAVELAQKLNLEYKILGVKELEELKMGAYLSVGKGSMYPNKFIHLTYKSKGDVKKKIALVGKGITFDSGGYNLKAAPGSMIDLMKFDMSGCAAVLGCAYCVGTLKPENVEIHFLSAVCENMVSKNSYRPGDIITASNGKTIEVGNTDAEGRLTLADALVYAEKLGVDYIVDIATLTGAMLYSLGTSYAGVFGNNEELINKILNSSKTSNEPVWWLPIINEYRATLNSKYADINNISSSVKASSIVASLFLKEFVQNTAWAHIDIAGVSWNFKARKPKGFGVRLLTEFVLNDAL

T1 sequence (P11940 whole entry, the tested form may be a part): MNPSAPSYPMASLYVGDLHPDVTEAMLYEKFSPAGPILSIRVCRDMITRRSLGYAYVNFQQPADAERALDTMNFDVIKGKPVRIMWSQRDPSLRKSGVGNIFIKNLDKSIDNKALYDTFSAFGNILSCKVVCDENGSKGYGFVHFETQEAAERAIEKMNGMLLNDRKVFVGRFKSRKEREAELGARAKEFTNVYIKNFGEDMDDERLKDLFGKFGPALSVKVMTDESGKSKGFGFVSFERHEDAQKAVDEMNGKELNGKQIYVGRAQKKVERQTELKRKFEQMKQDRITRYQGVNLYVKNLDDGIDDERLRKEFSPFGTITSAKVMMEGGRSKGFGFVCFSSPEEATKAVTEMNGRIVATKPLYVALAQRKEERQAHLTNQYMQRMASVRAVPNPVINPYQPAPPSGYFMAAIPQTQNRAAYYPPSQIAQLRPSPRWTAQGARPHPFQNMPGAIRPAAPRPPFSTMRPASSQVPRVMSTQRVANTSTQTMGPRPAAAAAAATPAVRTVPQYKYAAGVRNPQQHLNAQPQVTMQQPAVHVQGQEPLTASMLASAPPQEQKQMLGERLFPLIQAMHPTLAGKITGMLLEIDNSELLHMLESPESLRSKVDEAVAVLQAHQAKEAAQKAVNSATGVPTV

## Nc1nc2c(s1)COc1ccccc1-2
[1]
  IC50: > 100 µM (active)

## Nc1cccnc1Sc1cccc(Cl)c1
[2]
  IC50: > 66 µM (inactive)
[3]
  IC50: > 50 µM (not active)
[4]
  IC50: > 66 µM (inactive)

## CCOC(=O)c1cnc(Nc2nc3ccccc3o2)nc1C
BJ [5]
  EC50: 17 µM (active)
[6]
  AC50: 51.2 µM (active)
[7]
  EC50: 0.278 µM (active)
[8]
  EC50: 0.382 µM (active)
[9]
  EC50: 0.35 µM (active)
[10]
  EC50: 11.7 µM (active)
[11]
  AC50: 5.13 µM (active)
[12]
  AC50: 16.9 µM (active)
[13]
  AC50: 1.56 µM (active)
BJ [14]
  EC50: 11.1 µM (inconclusive)
BJ [15]
  EC50: > 150 µM (inconclusive)
[16]
  AC50: 1.11 µM (active)

## CCOC(=O)c1ccc2c(c1)nc(SCc1cn3ccsc3n1)n2CC
[17]
  AC50: 1.16 µM (active)

## O=C(CCNc1ccc(Cc2ccncc2)cc1)c1ccc([N+](=O)[O-])cc1
[3]
  IC50: 15.8 µM (active)
[18]
  IC50: > 67.5 µM (inactive)
[19]
  EC50: > 67.5 µM (inactive)

## O=C(Nc1nc2ccccc2s1)C1c2ccccc2Oc2ccccc21
[1]
  IC50: > 100 µM (active)

## O=C1OCCN1C(=O)[C@H]1[C@H](c2ccc([N+](=O)[O-])cc2)C(c2ccc(F)cc2)=NN1c1ccc(Br)cc1
[20]
  IC50: > 69.5 µM (inactive)
H9c2
  IC50: > 79 µM (inactive)

## CCOC(=O)c1c(N)sc(C(N)=O)c1C
[17]
  AC50: 5.1 µM (active)

## O=C(Nc1nccs1)c1ccc(NC(=O)C2CC=CCC2C(=O)O)cc1 (configuration not stated)
Leucine aminopeptidase
  IC50: 23.2 µM (active)

## COc1ccc(NC(=O)CSc2nnc[nH]2)c([N+](=O)[O-])c1
Leucine aminopeptidase
  IC50: 17 µM (active)

## COC(=O)c1c(NC(=O)C2C3C=CC(CC3)C2C(=O)O)sc(C)c1C (configuration not stated)
Leucine aminopeptidase
  IC50: 19 µM (active)

Source: ChEMBL document CHEMBL1201862, “PubChem BioAssay data set” (2004)
